Laboratory results as given in EP4722213A1, “NITROGEN-CONTAINING FUNCTIONAL GROUP-SUBSTITUTED PYRIDAZINOPYRIDONE DERIVATIVE AND USE THEREOF” (Sichuan Huiyu Pharmaceutical Co., Ltd., priority 2023, dated 2024).
Where a name gives a salt, the structure may show the parent alone.

Target: T1, SOS1 (Homo sapiens, UniProt Q07889)
T1 sequence (Q07889 1-1333): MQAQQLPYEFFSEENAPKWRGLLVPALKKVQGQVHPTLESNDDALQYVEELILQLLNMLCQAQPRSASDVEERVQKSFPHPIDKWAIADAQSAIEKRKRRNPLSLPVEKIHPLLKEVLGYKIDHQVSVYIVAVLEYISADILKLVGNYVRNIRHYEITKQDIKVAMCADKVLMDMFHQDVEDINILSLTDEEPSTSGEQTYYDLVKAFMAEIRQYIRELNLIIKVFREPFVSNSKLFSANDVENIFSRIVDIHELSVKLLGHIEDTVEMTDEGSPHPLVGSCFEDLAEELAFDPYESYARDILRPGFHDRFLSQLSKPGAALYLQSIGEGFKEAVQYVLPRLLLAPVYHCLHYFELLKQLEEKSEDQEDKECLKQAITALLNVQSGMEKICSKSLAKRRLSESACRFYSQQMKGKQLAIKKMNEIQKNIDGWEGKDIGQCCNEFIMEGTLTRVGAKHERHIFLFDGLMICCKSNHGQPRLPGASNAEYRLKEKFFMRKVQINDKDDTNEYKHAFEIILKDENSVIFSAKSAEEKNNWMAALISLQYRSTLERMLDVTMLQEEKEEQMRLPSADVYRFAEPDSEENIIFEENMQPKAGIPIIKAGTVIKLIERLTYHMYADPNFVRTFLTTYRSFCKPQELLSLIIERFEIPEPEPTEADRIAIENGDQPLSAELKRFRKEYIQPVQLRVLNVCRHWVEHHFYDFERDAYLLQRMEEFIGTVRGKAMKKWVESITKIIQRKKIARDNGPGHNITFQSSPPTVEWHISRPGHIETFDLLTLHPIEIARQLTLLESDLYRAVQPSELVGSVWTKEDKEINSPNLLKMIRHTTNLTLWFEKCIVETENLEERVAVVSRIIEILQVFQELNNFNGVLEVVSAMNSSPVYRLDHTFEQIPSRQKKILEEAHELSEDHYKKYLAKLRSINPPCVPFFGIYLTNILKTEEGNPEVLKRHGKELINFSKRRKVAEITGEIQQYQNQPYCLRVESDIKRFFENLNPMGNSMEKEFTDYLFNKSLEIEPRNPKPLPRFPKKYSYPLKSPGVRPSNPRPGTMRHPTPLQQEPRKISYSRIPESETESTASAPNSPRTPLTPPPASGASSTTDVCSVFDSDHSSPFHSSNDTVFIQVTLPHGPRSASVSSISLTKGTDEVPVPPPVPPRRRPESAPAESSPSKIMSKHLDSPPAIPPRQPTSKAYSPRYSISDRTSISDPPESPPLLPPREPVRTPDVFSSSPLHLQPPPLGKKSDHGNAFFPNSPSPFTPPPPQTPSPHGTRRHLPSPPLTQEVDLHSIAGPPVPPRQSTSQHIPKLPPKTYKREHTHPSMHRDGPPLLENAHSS
Experiment: biochemical

| Compound | IC50 |
| --- | --- |
| Cc1c(C#N)cccc1[C@@H](C)Nc1nnc(N2CCN(C)CC2)c2cc(=O)n(C3CCN(C)CC3)cc12 [Example 135, (R)-2-methyl-3-(1-((1-(4-methylpiperazin-1-yl)-6-(1-methylpiperidin-4-yl)-7-oxo-6,7-dihydropyrido[3,4-d]pyridazin-4-yl)amino)ethyl)benz onitrile formate] | 14.1 nM |
| Cc1c(C#N)cccc1[C@@H](C)Nc1nnc(N2CC3CC3C2)c2cc(=O)n(C3(C)CC3)cc12 (stereo partly drawn) [Example 46, 3-((1R)-1-((1-(3-azabicyclo[3.1.0]hexan-3-yl)-6-(1-methylcyclopropyl)-7-oxo-6,7-dihydropyrido[3,4-d]pyridazin-4-yl)amino)ethyl)-2-methylbenzonitrile] | 9.3 nM |
| Cc1c(C#N)cccc1[C@@H](C)Nc1nnc(N2CCN(C3CCCC3)CC2)c2cc(=O)n(C3CC3)cc12 [Example 101, (R)-3-(1-((1-(4-cyclopentylpiperazin-1-yl)-6-cyclopropyl-7-oxo-6,7-dihydropyrido[3,4-d]pyridazin-4-yl)amino)ethyl)-2-methylbenzonitrile] | 8.9 nM |
| C[C@@H](Nc1nnc(N2CCC(F)(F)C2)c2cc(=O)n(C3CC3)cc12)c1cccc(C(F)F)c1F [Example 14, (R)-6-cyclopropyl-4-((1-(3-(difluoromethyl)-2-fluorophenyl)ethyl)amino)-1-(3,3-difluoropyrrolidin-1-yl)pyrido[3,4-d]pyridazin-7(6H)-one] | 17.6 nM |
| C[C@@H](Nc1nnc(N2CCCCC2)c2cc(=O)n(C3(C)CC3)cc12)c1cccc(C(F)F)c1F [Example 6, (R)-4-((1-(3-(difluoromethyl)-2-fluorophenyl)ethyl)amino)-6-(1-methylcyclopropyl)-1-(piperidin-1-yl)pyrido[3,4-d]pyridazin-7(6H)-one] | 14.8 nM |
| C[C@@H](Nc1nnc(N2CC3CC3C2)c2cc(=O)n(C3(C)CC3)cc12)c1cccc(C(F)F)c1F (stereo partly drawn) [Example 21, 1-(3-azabicyclo[3.1.0]hexan-3-yl)-4-(((R)-1-(3-(difluoromethyl)-2-fluorophenyl)ethyl)amino)-6-(1-methylcyclopropyl) pyrido[3,4-d]pyridazin-7(6H)-one] | 6.9 nM |
| C[C@@H](Nc1nnc(N2CC[C@H](CO)C2)c2cc(=O)n(C3(C)CC3)cc12)c1cccc(C(F)(F)F)c1 [Example 179, 1-((S)-3-(hydroxymethyl)pyrrolidin-1-yl)-6-(1-methylcyclopropyl)-4-(((R)-1-(3-(trifluoromethyl)phenyl)ethyl)amino)pyr ido[3,4-d]pyridazin-7(6H)-one formate] | 6.4 nM |
| CCN(CC)c1nnc(N[C@H](C)c2cccc(C#N)c2C)c2cn(C3(C)CC3)c(=O)cc12 [Example 71, (R)-3-(1-((1-(diethylamino)-6-(1-methylcyclopropyl)-7-oxo-6,7-dihydropyrido[3,4-d]pyridazin-4-yl)amino)ethyl)-2-methylbenzonitrile] | 30.8 nM |
| C[C@@H](Nc1nnc(N2CC(F)(F)C2)c2cc(=O)n(C3CC3)cc12)c1cccc(C(F)F)c1F [Example 20, (R)-6-cyclopropyl-1-(3,3-difluoroazetidin-1-yl)-4-((1-(3-(difluoromethyl)-2-fluorophenyl)ethyl)amino)pyrido[3,4-d]pyridazin-7(6H)-one] | 23.8 nM |
| C[C@@H](Nc1nnc(N2CCN(C)CC2)c2cc(=O)n(C3(C)CC3)cc12)c1cccc(S(F)(F)(F)(F)F)c1 [Example 214, (R)-6-(1-methylcyclopropyl)-1-(4-methylpiperazin-1-yl)-4-((1-(3-(pentafluoro-λ^6-sulfaneyl)phenyl)ethyl)amino)pyrido[3,4-d]pyridazin-7(6H)-one formate] | 5 nM |
| C[C@@H](Nc1nnc(N2CCN(C)CC2)c2cc(=O)n(C3CCN(C)CC3)cc12)c1cccc(C(F)F)c1F [Example 223, (R)-4-((1-(3-(difluoromethyl)-2-fluorophenyl)ethyl)amino)-1-(4-methylpiperazin-1-yl)-6-(1-methylpiperidin-4-yl)pyrido[3,4-d]pyridazin-7(6H)-one] | 5.4 nM |
| C[C@@H](Nc1nnc(N2CCC3(CC2)CNC(=O)C3)c2cc(=O)n(C3(C)CC3)cc12)c1cccc(C(F)F)c1F [Example 204, (R)-4-((1-(3-(difluoromethyl)-2-fluorophenyl)ethyl)amino)-6-(1-methylcyclopropyl)-1-(3-oxo-2,8-diazaspiro[4.5]decan-8-yl)pyrido[3,4-d]pyridazin-7(6H)-one] | 8 nM |
| Cc1c(C#N)cccc1[C@@H](C)Nc1nnc(N2CCCC2)c2cc(=O)n(C3CC3)cc12 [Example 37, (R)-3-(1-((6-cyclopropyl-7-oxo-1-(pyrrolidin-1-yl)-6,7-dihydropyrido[3,4-d]pyridazin-4-yl)amino)ethyl)-2-methylbenzonitrile] | 9.2 nM |
| C[C@@H](Nc1nnc(N(C)C)c2cc(=O)n(C3(C)CC3)cc12)c1cccc(C(F)F)c1F [Example 8, (R)-4-((1-(3-(difluoromethyl)-2-fluorophenyl)ethyl)amino)-1-(dimethylamino)-6-(1-methylcyclopropyl) pyrido[3,4-d]pyridazin-7(6H)-one] | 7.7 nM |
| C[C@@H]1CCCN1c1nnc(N[C@H](C)c2cccc(C(F)F)c2F)c2cn(C3CC3)c(=O)cc12 [Example 25, 6-cyclopropyl-4-(((R)-1-(3-(difluoromethyl)-2-fluorophenyl)ethyl)amino)-1-((R)-2-methylpyrrolidin-1-yl)pyrido[3,4-d]pyridazin-7(6H)-one] | 12 nM |
| Cc1c([C@@H](C)Nc2nnc(N3CCN(C)CC3)c3cc(=O)n(C4CC4)cc23)cccc1C(F)(F)F [Example 86, (R)-6-cyclopropyl-4-((1-(2-methyl-3-(trifluoromethyl)phenyl)ethyl)amino)-1-(4-methylpiperazin-1-yl)pyrido[3,4-d]pyridazin-7(6H)-one] | 3.6 nM |
| C[C@@H](Nc1nnc(N2CC(CO)C2)c2cc(=O)n(C3(C)CC3)cc12)c1cccc(C(F)F)c1F [Example 131, (R)-4-((1-(3-(difluoromethyl)-2-fluorophenyl)ethyl)amino)-1-(3-(hydroxymethyl)azetidin-1-yl)-6-(1-methylcyclopropyl) pyrido[3,4-d]pyridazin-7(6H)-one] | 4.6 nM |
| C[C@@H](Nc1nnc(NC2COC2)c2cc(=O)n(C3(C)CC3)cc12)c1cccc(C(F)F)c1F [Example 115, (R)-4-((1-(3-(difluoromethyl)-2-fluorophenyl)ethyl)amino)-6-(1-methylcyclopropyl)-1-(oxetan-3-ylamino)pyrido[3,4-d]pyridazin-7(6H)-one] | 4.1 nM |
| CC(=O)N1CCN(c2nnc(N[C@H](C)c3cccc(C(F)F)c3F)c3cn(C4(C)CC4)c(=O)cc23)CC1 [Example 79, (R)-1-(4-acetylpiperazin-1-yl)-4-((1-(3-(difluoromethyl)-2-fluorophenyl)ethyl)amino)-6-(1-methylcyclopropyl)pyrido[3,4-d]pyridazin-7(6H)-one] | 12.7 nM |
| Cc1c(C#N)cccc1[C@@H](C)Nc1nnc(N2CC[C@H](CO)C2)c2cc(=O)n(N3CC4CCCC4C3)cc12 (stereo partly drawn) [Example 166, 3-((1R)-1-((6-(hexahydrocyclopenta[c]pyrrol-2(1H)-yl)-1-((S)-3-(hydroxymethyl)pyrrolidin-1-yl)-7-oxo-6,7-dihydropyrido[3,4-d]pyridazin-4-yl)amino)ethyl)-2-methylbenzonitrile] | 9.7 nM |
| CCN1CCN(c2nnc(N[C@H](C)c3cccc(C(F)F)c3F)c3cn(CC)c(=O)cc23)CC1 [Example 117, (R)-4-((1-(3-(difluoromethyl)-2-fluorophenyl)ethyl)amino)-6-ethyl-1-(4-ethylpiperazin-1-yl)pyrido[3,4-d]pyridazin-7(6H)-one] | 8.2 nM |
| Cc1c(C(F)F)cccc1[C@@H](C)Nc1nnc(N2CCN(C(C)C)CC2)c2cc(=O)n(C3CC3)cc12 [Example 211, (R)-6-cyclopropyl-4-((1-(3-(difluoromethyl)-2-methylphenyl)ethyl)amino)-1-(4-isopropylpiperazin-1-yl)pyrido[3,4-d]pyridazin-7(6H)-one] | 5.2 nM |
| Cc1c(C#N)cccc1[C@@H](C)Nc1nnc(N2CCC(F)(F)CC2)c2cc(=O)n(C3CC3)cc12 [Example 43, (R)-3-(1-((6-cyclopropyl-1-(4,4-difluoropiperidin-1-yl)-7-oxo-6,7-dihydropyrido[3,4-d]pyridazin-4-yl)amino)ethyl)-2-methylbenzonitrile] | 84.2 nM |
